Source: ChEMBL document CHEMBL1123417, “New structure-activity relationships of the quinolone antibacterials using the target enzyme. The development and application of a DNA gyrase assay” (J Med Chem, 1986)
Converted amounts (≈) assume the structure as drawn.

Columns and labels:
[1] = molecular target: DNA gyrase (Escherichia coli) (UniProt P0AES6+P0AES4)
[2] = tested on: Escherichia coli; experiment: Antibacterial activity against Escherichia coli (H560)
[3] = tested on: Escherichia coli; experiment: Antibacterial activity against Escherichia coli (vogel)
[4] = tested on: Klebsiella pneumoniae; experiment: Antibacterial activity against Klebsiella pneumonia (MGH-2)
[5] = tested on: Staphylococcus aureus; experiment: Antibacterial activity against Staphylococcus aureus (H228)
[6] = tested on: Pseudomonas aeruginosa; experiment: Antibacterial activity against Pseudomonas aeruginosa (UI-18)
[7] = tested on: Streptococcus pneumoniae; experiment: Antibacterial activity against Streptococcus pneumoniae (SV-1)

Row | SMILES | gyrase cleavage conc [1] [µg/mL] | MIC [2] [µg/mL] | MIC [3] [µg/mL] | MIC [4] [µg/mL] | MIC [5] [µg/mL] | MIC [6] [µg/mL] | MIC [7] [µg/mL]
1 | CCn1cc(C(=O)O)c(=O)cc1/C=C/c1ccsc1 | 100 | 50 (≈ 182 µM) | 25 (≈ 90.8 µM) | > 100 | > 100 | > 100 | > 100
2 | CCn1cc(C(=O)O)c(=O)c2ccc(N3CCN(CC#N)CC3)cc21 | 18 | 50 (≈ 147 µM) | 50 (≈ 147 µM) | > 100 | 25 (≈ 73.4 µM) | 100 (≈ 294 µM) | > 100
3 | CCn1cc(C(=O)O)c(=O)c2cc(F)c(N3CCC(C(N)=O)CC3)cc21 | 7.5 | 25 (≈ 69.2 µM) | 6.3 (≈ 17.4 µM) | 25 (≈ 69.2 µM) | 3.1 (≈ 8.58 µM) | 50 (≈ 138 µM) | 6.3 (≈ 17.4 µM)
4 | CCn1cc(C(=O)O)c(=O)c2cc(F)c(N3CCN(C(C)=N)CC3)nc21 | 6.3 | 0.8 (≈ 2.21 µM) | 3.1 (≈ 8.58 µM) | 6.3 (≈ 17.4 µM) | 50 (≈ 138 µM) | 25 (≈ 69.2 µM) | 50 (≈ 138 µM)
5 | CCn1cc(C(=O)O)c(=O)c2cc(F)c(N3CCN(C(C)=N)CC3)cc21 | 2.5 | 0.2 (≈ 0.555 µM) | 0.8 (≈ 2.22 µM) | 1.6 (≈ 4.44 µM) | 6.3 (≈ 17.5 µM) | 1.6 (≈ 4.44 µM) | 12.5 (≈ 34.7 µM)
6 | CCn1cc(C(=O)O)c(=O)c2ccc(/C=N/O)nc21 | 100 | > 100 | 12.5 (≈ 47.8 µM) | 12.5 (≈ 47.8 µM) | 50 (≈ 191 µM) | 100 (≈ 383 µM) | 100 (≈ 383 µM)
7 | CCn1cc(C(=O)O)c(=O)c2cc(F)c(N3CCN(CCCN(C)C)CC3)cc21 | 50 | 3.1 (≈ 7.66 µM) | 6.3 (≈ 15.6 µM) | 6.3 (≈ 15.6 µM) | 12.5 (≈ 30.9 µM) | 12.5 (≈ 30.9 µM) | 25 (≈ 61.8 µM)
8 | CCn1cc(C(=O)O)c(=O)c2cc(F)c(/C=N/O)nc21 | 50 | > 100 | 6.3 (≈ 22.6 µM) | 12.5 (≈ 44.8 µM) | 100 (≈ 358 µM) | 100 (≈ 358 µM) | 100 (≈ 358 µM)
9 | CCn1cc(C(=O)O)c(=O)c2cc(F)c(F)c(F)c21 | 38 | 6.3 (≈ 23.2 µM) | 1.6 (≈ 5.9 µM) | 6.3 (≈ 23.2 µM) | 50 (≈ 184 µM) | > 100 | > 100
10 | CCn1cc(C(=O)O)c(=O)c2cc([N+](=O)[O-])c(C)nc21 | 50 | 50 (≈ 180 µM) | 25 (≈ 90.2 µM) | 50 (≈ 180 µM) | 25 (≈ 90.2 µM) | > 100 | > 100
11 | CCn1cc(C(=O)O)c(=O)c2cc(F)c(N3CCN(CC#N)CC3)cc21 | 10 | 0.8 (≈ 2.23 µM) | 0.4 (≈ 1.12 µM) | 0.8 (≈ 2.23 µM) | 1.6 (≈ 4.46 µM) | 6.3 (≈ 17.6 µM) | 6.3 (≈ 17.6 µM)
12 | CCn1cc(C(=O)O)c(=O)c2cc(F)c(N3CCN(C)CC3)c(F)c21 | 2.5 | 0.1 (≈ 0.285 µM) | 0.2 (≈ 0.569 µM) | 0.4 (≈ 1.14 µM) | 0.4 (≈ 1.14 µM) | 0.8 (≈ 2.28 µM) | 3.1 (≈ 8.82 µM)
13 | CCn1cc(C(=O)O)c(=O)c2cc(F)c(N3CCC(N4CCN(C)CC4)CC3)cc21 | 50 | 12.5 (≈ 30 µM) | 3.1 (≈ 7.44 µM) | 12.5 (≈ 30 µM) | 1.6 (≈ 3.84 µM) | 50 (≈ 120 µM) | 6.3 (≈ 15.1 µM)
14 | CCn1cc(C(=O)O)c(=O)c2cc(F)c(N3CCSCC3)nc21 | 18 | 1.6 (≈ 4.74 µM) | 1.6 (≈ 4.74 µM) | 3.1 (≈ 9.19 µM) | 0.2 (≈ 0.593 µM) | 6.3 (≈ 18.7 µM) | 50 (≈ 148 µM)
15 | CCn1cc(C(=O)O)c(=O)c2cc(F)c(/C=N/N3CCN(C)CC3)nc21 | 100 | 50 (≈ 138 µM) | 25 (≈ 69.2 µM) | 25 (≈ 69.2 µM) | 25 (≈ 69.2 µM) | > 100 | 100 (≈ 277 µM)
16 | CCn1cc(C(=O)O)c(=O)c2cc(F)c(N3CCC(C(F)(F)F)CC3)cc21 | 5 | 6.3 (≈ 16.3 µM) | 6.3 (≈ 16.3 µM) | > 100 | 0.1 (≈ 0.259 µM) | > 100 | 6.3 (≈ 16.3 µM)
17 | CCn1cc(C(=O)O)c(=O)c2cc(F)c(N3CCSC3)cc21 | 5 | 0.2 (≈ 0.62 µM) | 0.2 (≈ 0.62 µM) | 0.4 (≈ 1.24 µM) | 0.2 (≈ 0.62 µM) | 3.1 (≈ 9.62 µM) | 12.5 (≈ 38.8 µM)
18 | CCn1cc(C(=O)O)c(=O)c2cc(F)c(N3CCN(CCN)CC3)nc21 | 6.3 | 12.5 (≈ 34.4 µM) | 12.5 (≈ 34.4 µM) | 25 (≈ 68.8 µM) | 50 (≈ 138 µM) | 50 (≈ 138 µM) | 12.5 (≈ 34.4 µM)
19 | CCOC(=O)N1CCN(c2nc3c(cc2F)c(=O)c(C(=O)O)cn3CC)CC1 | 18 | 50 (≈ 127 µM) | 25 (≈ 63.7 µM) | 50 (≈ 127 µM) | 3.1 (≈ 7.9 µM) | 200 (≈ 510 µM) | 100 (≈ 255 µM)
20 | CCn1cc(C(=O)O)c(=O)c2cc(F)c(C)nc21 | 25 | 3.1 (≈ 12.4 µM) | 3.1 (≈ 12.4 µM) | 6.3 (≈ 25.2 µM) | 25 (≈ 99.9 µM) | 50 (≈ 200 µM) | > 100
21 | CCn1cc(C(=O)O)c(=O)cc1C | 100 | > 100 | > 100 | > 100 | > 100 | > 100 | > 100
22 | CCn1cc(C(=O)O)c(=O)c2cc(F)c(SCCN)cc21 | 5 | 3.1 (≈ 9.99 µM) | 0.8 (≈ 2.58 µM) | 1.6 (≈ 5.16 µM) | 25 (≈ 80.6 µM) | 3.1 (≈ 9.99 µM) | 25 (≈ 80.6 µM)

Row | SMILES | gyrase cleavage conc [1] [µg/mL] | MIC [2] [µg/mL] | MIC [3] [µg/mL] | MIC [4] [µg/mL] | MIC [5] [µg/mL] | MIC [6] [µg/mL] | MIC [7] [µg/mL]
23 | CC1COc2c(N3CCN(C)CC3)c(F)cc3c(=O)c(C(=O)O)cn1c23 (stereo not drawn) | 5 |  |  |  |  |  | 
24 | CCn1cc(C(=O)O)c(=O)c2ccc(N3CCNCC3)nc21 | 75 | 3.1 (≈ 10.3 µM) | 6.3 (≈ 20.8 µM) | 12.5 (≈ 41.3 µM) | 50 (≈ 165 µM) | 12.5 (≈ 41.3 µM) | 50 (≈ 165 µM)
25 | CCn1cc(C(=O)O)c(=O)c2cc(F)c(NC)cc21 | 18 | 3.1 (≈ 11.7 µM) | 3.1 (≈ 11.7 µM) | 6.3 (≈ 23.8 µM) | 12.5 (≈ 47.3 µM) | > 100 | 100 (≈ 378 µM)
26 | CCn1cc(C(=O)O)c(=O)c2cc(F)c(N3CCSCC3)cc21 | 5 | 0.1 (≈ 0.297 µM) | 0.1 (≈ 0.297 µM) | 0.2 (≈ 0.595 µM) | 0.006 (≈ 0.0178 µM) | 0.8 (≈ 2.38 µM) | 12.5 (≈ 37.2 µM)
27 | CCn1cc(C(=O)O)c(=O)c2c(N)nc(N3CCNCC3)nc21 | 100 | 3.1 (≈ 9.74 µM) | 6.3 (≈ 19.8 µM) | 25 (≈ 78.5 µM) | 50 (≈ 157 µM) | 25 (≈ 78.5 µM) | 50 (≈ 157 µM)
28 | CCn1cc(C(=O)O)c(=O)c2cc(N)c(C)nc21 | > 100 | 100 (≈ 404 µM) | > 100 | > 100 | 50 (≈ 202 µM) | > 100 | 50 (≈ 202 µM)
29 | CCn1cc(C(=O)O)c(=O)c2cc(F)c(Cl)cc21 | 38 | 1.6 (≈ 5.93 µM) | 0.8 (≈ 2.97 µM) | 1.6 (≈ 5.93 µM) | 3.1 (≈ 11.5 µM) | 50 (≈ 185 µM) | 100 (≈ 371 µM)
30 | CCn1cc(C(=O)O)c(=O)c2cc(F)c(N3CCC(N4CCCC4)CC3)cc21 | 7.5 | 0.1 (≈ 0.258 µM) | 0.4 (≈ 1.03 µM) | 1.6 (≈ 4.13 µM) | 3.1 (≈ 8 µM) | 3.1 (≈ 8 µM) | 12.5 (≈ 32.3 µM)
31 | CCn1cc(C(=O)O)c(=O)c2cc(F)c(N3CCNCC3)cc21 | 1 |  |  |  |  |  | 
32 | CCn1cc(C(=O)O)c(=O)c2cc(F)ccc21 | 50 | 25 (≈ 106 µM) | 0.8 (≈ 3.4 µM) | 1.6 (≈ 6.8 µM) | > 100 | > 100 | > 100
33 | CCn1cc(C(=O)O)c(=O)c2ccc(/C=N/N3CCN(C)CC3)nc21 | 100 | 12.5 (≈ 36.4 µM) | 12.5 (≈ 36.4 µM) | 12.5 (≈ 36.4 µM) | 12.5 (≈ 36.4 µM) | > 100 | 100 (≈ 291 µM)
34 | CCn1cc(C(=O)O)c(=O)c2cc([N+](=O)[O-])ccc21 | > 100 | 50 (≈ 191 µM) | 12.5 (≈ 47.7 µM) | 12.5 (≈ 47.7 µM) | > 100 | > 100 | 100 (≈ 381 µM)
35 | CCn1cc(C(=O)O)c(=O)c2ccc(/C=C/N3CCN(C)CC3)nc21 | > 100 | > 100 | > 100 | > 100 | > 100 | > 100 | > 100
36 | CCn1cc(C(=O)O)c(=O)c2cc(F)c(N3CCN(CCN)CC3)cc21 | 10 | 25 (≈ 69 µM) | 25 (≈ 69 µM) | 50 (≈ 138 µM) | 12.5 (≈ 34.5 µM) | 50 (≈ 138 µM) | 50 (≈ 138 µM)
37 | CCn1cc(C(=O)O)c(=O)c2cc(F)c(C)cc21 | 25 | 0.4 (≈ 1.6 µM) | 0.2 (≈ 0.802 µM) | 0.2 (≈ 0.802 µM) | 1.6 (≈ 6.42 µM) | 12.5 (≈ 50.2 µM) | 100 (≈ 401 µM)
38 | CCn1cc(C(=O)O)c(=O)c2c(N)nc(N3CCCC3)nc21 | 100 | 100 (≈ 330 µM) | 100 (≈ 330 µM) | > 100 | 100 (≈ 330 µM) | > 100 | 25 (≈ 82.4 µM)
39 | CCn1cc(C(=O)O)c(=O)c2c(N)nc(N3CCN(C)CC3)nc21 | 100 | 3.1 (≈ 9.33 µM) | 1.6 (≈ 4.81 µM) | 6.3 (≈ 19 µM) | 100 (≈ 301 µM) | 100 (≈ 301 µM) | 100 (≈ 301 µM)
40 | CCn1cc(C(=O)O)c(=O)c2ccc(N3CCNCC3)cc21 | 18 | 6.3 (≈ 20.9 µM) | 6.3 (≈ 20.9 µM) | 6.3 (≈ 20.9 µM) | > 50 | 25 (≈ 83 µM) | 50 (≈ 166 µM)
41 | CCn1cc(C(=O)O)c(=O)c2ccc(C)nc21 | 50 |  |  |  |  |  | 
42 | CCn1cc(C(=O)O)c(=O)c2cc(F)c(NCCN)nc21 | 50 | 25 (≈ 85 µM) | 12.5 (≈ 42.5 µM) | 25 (≈ 85 µM) | > 100 | 50 (≈ 170 µM) | > 100
43 | CCn1cc(C(=O)O)c(=O)cc1-c1ccc(OC)cc1 | 100 | > 100 | 50 (≈ 183 µM) | 50 (≈ 183 µM) | > 100 | > 100 | > 100
